Test results as given in article PMC6135860 (Neuropsychopharmacology, 2018).
Read-outs that look alike come from different tables or passages of the source.

What was measured:
[1] = target: T1, mouse PDE4B3 dimer S133D(PKA) (Mus musculus, UniProt Q8VBU5, S118D); experiment: PDE4 kinetic cAMP hydrolysis coupled-enzyme assay; type: biochemical
T1 construct: hexahistidine; Proteos Inc; host or cells: Baculovirus-infected Sf9 insect cells
T1 sequence (Q8VBU5 1-721 S118D): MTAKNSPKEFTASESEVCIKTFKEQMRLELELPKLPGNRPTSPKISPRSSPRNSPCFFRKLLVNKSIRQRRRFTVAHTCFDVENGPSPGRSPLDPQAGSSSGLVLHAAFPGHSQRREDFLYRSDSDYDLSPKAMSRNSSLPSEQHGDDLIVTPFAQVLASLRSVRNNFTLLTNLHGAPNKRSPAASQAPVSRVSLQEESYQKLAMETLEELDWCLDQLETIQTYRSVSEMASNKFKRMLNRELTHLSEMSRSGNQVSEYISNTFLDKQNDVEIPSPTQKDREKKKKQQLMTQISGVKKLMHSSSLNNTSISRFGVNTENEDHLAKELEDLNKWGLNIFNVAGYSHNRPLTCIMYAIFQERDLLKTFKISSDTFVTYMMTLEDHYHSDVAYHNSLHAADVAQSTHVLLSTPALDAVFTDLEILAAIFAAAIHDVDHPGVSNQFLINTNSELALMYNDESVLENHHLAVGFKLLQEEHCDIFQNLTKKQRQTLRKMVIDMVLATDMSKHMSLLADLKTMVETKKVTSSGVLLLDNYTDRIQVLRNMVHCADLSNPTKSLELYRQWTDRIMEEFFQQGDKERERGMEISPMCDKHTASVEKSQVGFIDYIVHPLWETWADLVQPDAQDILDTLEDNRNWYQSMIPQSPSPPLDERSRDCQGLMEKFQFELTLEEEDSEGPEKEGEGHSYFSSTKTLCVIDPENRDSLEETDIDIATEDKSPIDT
Description: Kinetic assay of cAMP hydrolysis by purified PDE4 enzymes is measured by coupling the formation of the PDE4 reaction product 5′-adenosine monophosphate (AMP) to the oxidation of reduced nicotinamide adenine dinucleotide (NADH). This is accomplished with three coupling enzymes (yeast myokinase, pyruvate kinase, and lactate dehydrogenase), and allows fluorescent determination of reaction rates [19]. To measure inhibition of PDE4 enzymes by test compounds, data were percent normalized relative to controls and are presented as percent inhibition.
Kinetic assay of cAMP hydrolysis by purified PDE4 enzymes is measured by coupling the formation of the PDE4 reaction product 5′-adenosine monophosphate (AMP) to the oxidation of reduced nicotinamide adenine dinucleotide (NADH). This is accomplished with three coupling enzymes (yeast myokinase, pyruvate kinase, and lactate dehydrogenase), and allows fluorescent determination of reaction rates.^19 Assays were performed in 96-well plates in a total volume of 200 μl/well. Compounds were dissolved in dimethylsulfoxide (DMSO) and added to plates in a volume of 10 μl followed by addition of 165 μl of assay mix. Plates were pre-incubated at 25 °C for 10 min. The enzyme reaction was initiated by the addition of 25 μl of cAMP followed by thorough mixing. […] Initial rates (slopes) were determined from linear portions of the progress curves. […]

[2] = target: PDE4 binding sites in wild-type mouse brain membranes; experiment: [3H]-rolipram radioligand binding to brain membranes; details: wild-type
Description: (§1) Mice were killed by decapitation, and the brains were immediately dissected on ice and homogenized in binding buffer using a Polytron homogenizer (Brinkman Instruments, Westbury, NY). The membrane fraction of the homogenate was obtained by centrifugation at 15,000 × g for 15 min, and resuspension of the pellet in the binding buffer.
(§2) Mice were killed by decapitation, and the brains were immediately dissected on ice and homogenized in binding buffer (50 mM Tris-HCl, 5 mM MgCl2, pH 7.5) using a Polytron homogenizer (Brinkman Instruments, Westbury, NY). The membrane fraction of the homogenate was obtained by centrifugation at 15,000 g for 15 min, and resuspension of the pellet in the binding buffer^29.
(§3) At the end of the incubation, reactions were stopped by adding 5 ml of the ice-cold binding buffer and rapid vacuum filtration through glass fiber filters that had been soaked in 0.3% polyethyleneimine. The filters were then washed twice with 5 ml of the ice-cold binding buffer, and discs of filter paper were collected for measurement of radioactivity by liquid scintillation counting.

[3] = target: PDE4 binding sites in humanized PDE4D mouse brain membranes; experiment: as above
Description: as §1, §2, §3

wild-type mice = experiment: Y-maze spontaneous alternation test; type: in vivo, mouse; details: oral gavage 1 h prior to test
Description: (§4) The test consists of a single 5 min trial, in which the mouse was allowed to explore all three arms of the Y-maze [31]. Spontaneous alternation (%) was defined as consecutive entries in three different arms, divided by the number of possible alternations (total arm entries minus 2).
(§5) Y-maze spontaneous alternation test. The Y-maze apparatus made of matt blue Plexiglas had three identical arms (L 40 cm, W 5 cm, H 15 cm) placed at 120° from each other. The test consisted of a single 5 min trial, in which the mouse was allowed to explore all three arms of the Y-maze. The start arm was varied between animals to avoid placement bias. Spontaneous Alternation (%) was defined as consecutive entries in 3 different arms, divided by the number of possible alternations (total arm entries minus 2). Mice with less than 8 arm entries during the 5-min trial were excluded from the analysis.

humanized PDE4D mice [4] = experiment: Y-maze spontaneous alternation test; type: in vivo, mouse; details: humanized PDE4D mice, oral gavage 1 h prior to test
Description: as §4, §5

humanized PDE4D mice [5] = experiment: Novel object recognition, 24 h inter-trial interval; type: in vivo, mouse
Description: The novel object recognition test was performed as described elsewhere [32, 33]. Briefly, the task procedure consists of three phases: habituation phase on day 1 for 10 min, training (T1) phase on day 2 for 5 min, and testing (T2) phase on day 3 for 5 min. The duration each animal spent exploring the objects was recorded. Time spent exploring the identical objects in T1 was recorded as a1 and a2; time spent exploring the familiar and the novel objects in T2 was recorded as “a” and “b”, respectively. The following variables were calculated: e1 = a1 + a2, e2 = a + b, the relative discrimination index d2 = (b–a)/e2.
Novel object recognition. Mice were handled for 3-5 min for 5 days in a row. The novel object recognition test was performed in a Plexiglas open field box (L30 cm, W50 cm, H40 cm) as described elsewhere^64,65. Briefly, the task procedure consists of three phases: habituation, training (T1), and testing (T2). In the habituation phase (day 1), each animal is allowed to freely explore the apparatus for 10 min; then the animal is returned to its home cage. During the training phase (day 2), a single animal is placed in the center of the open field containing two identical objects located on the diagonal of the field, and allowed to explore for 5 min. After a retention interval after T1 of 24 h (long-term recall) or 1 h (scopolamine-impairment model), the animal was subjected to the T2 testing phase for 5 min, during which one familiar object and one novel object were presented. The arena and objects were thoroughly wiped with 70% ethanol after each trial to avoid the presence of any olfactory cues. The animals were considered to be exploring the object when directing their nose to the object at a distance of no more than 2 cm and/or touching or sniffing the object. The duration each animal spent exploring the objects was recorded. Time spent exploring the identical objects in T1 was recorded as a1 and a2; time spent exploring the familiar and the novel objects in T2 was recorded as ‘a’ and ‘b’, respectively. The following variables were calculated: e1 = a1 + a2, e2 = a + b, the relative discrimination index d2 = (b – a)/e2.

humanized PDE4D mice [6] = experiment: Scopolamine-induced memory impairment in novel object recognition, 1 h inter-trial interval; type: in vivo, mouse
Description: The novel object recognition test was performed as described elsewhere. […] The duration each animal spent exploring the objects was recorded. Time spent exploring the identical objects in T1 was recorded as a1 and a2; time spent exploring the familiar and the novel objects in T2 was recorded as “a” and “b”, respectively. The following variables were calculated: e1 = a1 + a2, e2 = a + b, the relative discrimination index d2 = (b–a)/e2.
For the scopolamine-induced memory impairment models, a single dose of scopolamine (0.1 mg/kg, IP) was administered 30 min before the training session of the NOR. Animals treated with H-89 or vehicle were implanted with 26-gauge guide cannula unilaterally (AP −0.2 mm from Bregma, ML +1 mm from the midline, DV−2mm from skull surface) and rested for a week before any tests.
Novel object recognition. Mice were handled for 3-5 min for 5 days in a row. The novel object recognition test was performed in a Plexiglas open field box (L30 cm, W50 cm, H40 cm) as described elsewhere^64,65. Briefly, the task procedure consists of three phases: habituation, training (T1), and testing (T2). In the habituation phase (day 1), each animal is allowed to freely explore the apparatus for 10 min; then the animal is returned to its home cage. During the training phase (day 2), a single animal is placed in the center of the open field containing two identical objects located on the diagonal of the field, and allowed to explore for 5 min. After a retention interval after T1 of 24 h (long-term recall) or 1 h (scopolamine-impairment model), the animal was subjected to the T2 testing phase for 5 min, during which one familiar object and one novel object were presented. […] The duration each animal spent exploring the objects was recorded. Time spent exploring the identical objects in T1 was recorded as a1 and a2; time spent exploring the familiar and the novel objects in T2 was recorded as ‘a’ and ‘b’, respectively. The following variables were calculated: e1 = a1 + a2, e2 = a + b, the relative discrimination index d2 = (b – a)/e2.

ICR mice [7] = experiment: Antidepressant-like effect models (tail suspension, forced swim); type: in vivo, mouse; details: Supplementary Figure S3
Excerpt: Data are presented as mean ± S.E.M. (n = 10 male mice); * p < 0.05 and ** p < 0.01 (Student’s t-test) versus vehicle-treated group.

ICR mice [8] = experiment: Anxiolytic-like effect models (marble burying, elevated-plus maze); type: in vivo, mouse; details: Supplementary Figure S4
Excerpt: Data are presented as mean ± S.E.M. (n = 10 male mice); * p < 0.05 and *** p < 0.001 (Student’s t-test) versus vehicle-treated group.

humanized PDE4D mice [9] = tested on: humanized PDE4D mice
[10] = Pharmacokinetics and plasma exposure in mice

Compound `O=C(O)Cc1ccc(Cc2cc(-c3cccc(Cl)c3)nc(C(F)(F)F)c2)cc1` [BPN14770] has an IC50 [1] of 2.12 ± 0.527 µM, a Ki ([2]; inhibition of 2 nM [3H]-rolipram binding, read-out: One-site Ki) of 0.124 ± 0.0141 µM and a Ki ([2]; inhibition of [3H]-rolipram binding, read-out: Two-site Ki1) of 0.0797 ± 0.0171 µM. It also gave a Ki ([2]; inhibition of [3H]-rolipram binding, read-out: Two-site Ki2) of 0.622 ± 0.11 µM, a Ki ([3]; hPDE4D, inhibition of [3H]-rolipram binding, read-out: Two-site Ki1) of 0.0028 ± 0.00108 µM and a Ki ([3]; hPDE4D, inhibition of [3H]-rolipram binding, read-out: Two-site Ki2) of 0.186 ± 0.019 µM. For the same compound, the Ki ([3]; read-out: One-site Ki) was 0.0821 ± 0.00603 µM, the “MED for improved % alternation in Y-maze” value (wild-type mice) was 1 mg/kg and the “MED for improved % alternation in Y-maze” value (humanized PDE4D mice [4]) was 0.01 mg/kg. For the same compound, the “dose range for effect on neurochemical and cognitive biomarkers” value (humanized PDE4D mice [5]; humanized PDE4D mice) was 0.01–0.03 mg/kg PO, the “greater potency for improving memory in humanized vs wild-type mice” value (humanized PDE4D mice [5]; memory tests overall) was 100 fold and the “MED for reversal of scopolamine memory deficit” value (humanized PDE4D mice [6]; acute administration 30 min prior to scopolamine, NOR 1 h inter-trial interval) was 0.03 mg/kg. The “memory benefit in the scopolamine impairment model with repeated dosing” value (humanized PDE4D mice [6]; repeated treatment for 14 days) was “maintained with repeated dosing”, the antidepressant-like effect (ICR mice [7]) was “ineffective” and the anxiolytic-like effect (ICR mice [8]) was “ineffective”. The “projected tolerability in non-rodent species, plasma” value (humanized PDE4D mice [9]; from surrogate measure of emesis) was “greater than 1300 ng/ml”, the “window in exposure between beneficial doses and plasma exposure predicted to cause emesis” value (humanized PDE4D mice [9]; humanized PDE4D mice) was 40- to 100 fold and the “NOAEL (no observed adverse effect level), ketamine/xylazine test” value (humanized PDE4D mice [9]; mouse, in vivo) was 1 mg/kg PO. For the same compound, the “plasma exposure at the NOAEL” value ([10]; 1 mg/kg PO, 1 h post dose, data not shown) was 1305 ± 113 ng/mL, the Kp ([10]; C57bl/6, mouse, brain and plasma) was 0.4 to 0.42 and the bioavailability ([10]; C57bl/6, mouse, in vivo, po) was 70 to 80%. For the same compound, the half-life ([10]; C57bl/6, mouse, plasma and brain) was 8 to 10 h.
